From patent US6635670B2, “sPLA2 inhibitors” (Eli Lilly and Company, priority 1999, dated 2003)
Where two headings read alike, the source gives them in different places.

Molecular target: T1, recombinant human secreted phospholipase A2 (Homo sapiens, UniProt P14555)
T1 sequence (P14555 21-144): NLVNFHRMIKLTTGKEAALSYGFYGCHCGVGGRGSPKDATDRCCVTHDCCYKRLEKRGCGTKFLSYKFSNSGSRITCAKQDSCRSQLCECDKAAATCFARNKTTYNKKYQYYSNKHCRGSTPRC
Assay: chromogenic assay for inhibitors of recombinant human secreted phospholipase A2
Assay type: biochemical
Description: The following chromogenic assay procedure was used to identify and evaluate inhibitors of recombinant human secreted phospholipase A2. The assay described herein has been adapted for high volume screening using 96 well microtiter plates. A general description of this assay method is found in the article, “Analysis of Human Synovial Fluid Phospholipase A2 on Short Chain Phosphatidylcholine-Mixed Micelles: Development of a Spectrophotometric Assay Suitable for a Microtiterplate Reader”, by Laure J. Reynolds, Lori L. Hughes, and Edward A Dennis, Analytical Biochemistry, 204, pp. 190-197, 1992 (the disclosure of which is incorporated herein by reference):
REACTION BUFFER —CaCl2. 2H2O (1.47 g/L) KCl (7.455 g/L) Bovine Serum Albumin (fatty acid free) (1 g/L) (Sigma A-7030, product of Sigma Chemical Co., St. Louis Mo., USA) TRIS HCl (3.94 g/L) pH 7.5 (adjust with NaOH)
ENZYME BUFFER-0.05 NaOAc.3H2O, pH 4.5 0.2 NaCl Adjust pH to 4.5 with acetic acid DTNB-5,5′-dithiobis-2-nitrobenzoic acid
RACEMIC DIHEPTANOYL THIO-PC racemic 1,2-bis(heptanoylthio)-1,2-dideoxy-sn-glycero-3-phosphorylcholine TRITON X-100™ prepare at 6.249 mg/ml in reaction buffer to equal […].
A measured volume of racemic dipheptanoyl thio PC supplied in chloroform at a concentration of 100 mg/ml is taken to dryness and redissolved in 10 millimolar
TRITON X-100™ nonionic detergent aqueous solution.
Reaction Buffer is added to the solution, then DTNB to give the Reaction Mixture.
The reaction mixture thus obtained contains 1 mM diheptanoly thio-PC substrate, 0.29 mm Triton X-100™ detergent, and 0.12 mm DTMB in a buffered aqueous solution at pH 7.5.
1. Add 0.2 ml reaction mixture to all wells;
2. Add 10 ul test compound (or solvent blank) to appropriate wells, mix 20 seconds;
3. Add 50 nanograms of sPLA2 (10 microliters) to appropriate wells;
4. Incubate plate at 40° C. for 30 minutes;
5. Read absorbance of wells at 405 nanometers with an automatic plate reader.
All compounds were tested in triplicate. Typically, compounds were tested at a final concentration of 5 ug/ml. […] Lack of color development at 405 nanometers evidenced inhibition. Compounds initially found to be active were reassayed to confirm their activity and, if sufficiently active, IC50 values were determined. […] In all cases, % inhibition measured at 405 nanometers generated by enzyme reactions containing inhibitors relative to the uninhibited control reactions was determined. Each sample was titrated in triplicate and result values were averaged for plotting and calculation of IC50 values. IC50 were determined by plotting log concentration versus inhibition values in the range from 10-90% inhibition.

[1] = diheptanoyl thio-PC substrate, pH 7.5, 40° C. for 30 minutes, absorbance at 405 nanometers, read-out: Inhibition of human secreted PLA2 IC50 ± mean deviation (3-4 tests)

SMILES | IC50 [nM] | activity in inhibiting SPLA2 (statement in words) | IC50 [1] [nM]
CCc1c(C(=O)C(N)=O)c2c(OCC(=O)OC)cccc2n1Cc1ccccc1 [Compound 1, [[3-(2-Amino-1,2-dioxoethyl)-2-ethyl-1-(phenylmethyl)-1H-indol-4-yl]oxy]acetic acid methyl ester] | 49 | highly active | –
CCc1c(C(=O)C(N)=O)c2c(OCC(=O)NCC(=O)OC)cccc2n1Cc1ccccc1 [Compound 2A, N-[2-[[3-(Aminooxoacetyl)-2-ethyl-1-(phenylmethyl)-1H-indol-4-yl]oxy]acetyl]glycine Methyl Ester] | – | – | 529
CCc1c(C(=O)C(N)=O)c2c(OCC(=O)N[C@@H](C)C(=O)OC)cccc2n1Cc1ccccc1 [Compound 2B, N-[2-[[3-(Aminooxoacetyl)-2-ethyl-1-(phenylmethyl)-1H-indol-4-yl]oxy]acetyl]-L-alanine Methyl Ester] | – | – | 533
CCc1c(C(=O)C(N)=O)c2c(OCC(=O)N[C@@H](CC(C)C)C(=O)OC)cccc2n1Cc1ccccc1 [Compound 2C, N-[2-[[3-(Aminooxoacetyl)-2-ethyl-1-(phenylmethyl)-1H-indol-4-yl]oxy]acetyl]-L-leucine Methyl Ester] | – | – | 82
CCc1c(C(=O)C(N)=O)c2c(OCC(=O)N[C@@H](CC(=O)OC)C(=O)OC)cccc2n1Cc1ccccc1 [Compound 2D, N-[2-[[3-(Aminooxoacetyl)-2-ethyl-1-(phenylmethyl)-1H-indol-4-yl]oxy]acetyl]-L-aspartic Acid Dimethyl Ester] | – | – | 874
CCc1c(C(=O)C(N)=O)c2c(OCC(=O)N[C@@H](Cc3ccccc3)C(=O)OC)cccc2n1Cc1ccccc1 [Compound 2E, N-[2-[[3-(Aminooxoacetyl)-2-ethyl-1-(phenylmethyl)-1H-indol-4-yl]oxy]acetyl]-L-phenylalanine Methyl Ester] | – | – | 666
CCc1c(C(=O)C(N)=O)c2c(OCC(=O)NC(C(=O)OC)C(=O)OC)cccc2n1Cc1ccccc1 [Compound 2F, [2-[[3-(Aminooxoacetyl)-2-ethyl-1-(phenylmethyl)-1H-indol-4-yl]oxy]acetamido]malonic Acid Dimethyl Ester] | – | – | 698
CCc1c(C(=O)C(N)=O)c2c(OCC(=O)N[C@H](C(=O)OC)C(C)C)cccc2n1Cc1ccccc1 [Compound 2G, N-[2-[[3-(Aminooxoacetyl)-2-ethyl-1-(phenylmethyl)-1H-indol-4-yl]oxy]acetyl]-L-valine Methyl Ester] | – | – | 283
CCc1c(C(=O)C(N)=O)c2c(OCC(=O)N[C@H](C(=O)OC)[C@@H](C)CC)cccc2n1Cc1ccccc1 [Compound 2H, N-[2-[[3-(Aminooxoacetyl)-2-ethyl-1-(phenylmethyl)-1H-indol-4-yl]oxy]acetyl]-L-isoleucine Methyl Ester] | – | – | 166
CCc1c(C(=O)C(N)=O)c2c(OCC(=O)NCC(=O)O)cccc2n1Cc1ccccc1 [Compound 3A, N-[2-[[3-(Aminooxoacetyl)-2-ethyl-1-(phenylmethyl)-1H-indol-4-yl]oxy]acetyl]glycine] | – | – | 71
CCc1c(C(=O)C(N)=O)c2c(OCC(=O)N[C@@H](C)C(=O)O)cccc2n1Cc1ccccc1 [Compound 3B, N-[2-[[3-(Aminooxoacetyl)-2-ethyl-1-(phenylmethyl)-1H-indol-4-yl]oxy]acetyl]-L-alanine] | – | – | 59
CCc1c(C(=O)C(N)=O)c2c(OCC(=O)N[C@@H](CC(C)C)C(=O)O)cccc2n1Cc1ccccc1 [Compound 3C, N-[2-[[3-(Aminooxoacetyl)-2-ethyl-1-(phenylmethyl)-1H-indol-4-yl]oxy]acetyl]-L-leucine] | – | – | 28
CCc1c(C(=O)C(N)=O)c2c(OCC(=O)N[C@@H](CC(=O)O)C(=O)O)cccc2n1Cc1ccccc1 [Compound 3D, N-[2-[[3-(Aminooxoacetyl)-2-ethyl-1-(phenylmethyl)-1H-indol-4-yl]oxy]acetyl]-L-aspartic Acid] | – | – | 132
CCc1c(C(=O)C(N)=O)c2c(OCC(=O)N[C@@H](Cc3ccccc3)C(=O)O)cccc2n1Cc1ccccc1 [Compound 3E, N-[2-[[3-(Aminooxoacetyl)-2-ethyl-1-(phenylmethyl)-1H-indol-4-yl]oxy]acetyl]-L-phenylalanine] | – | – | 64
CCc1c(C(=O)C(N)=O)c2c(OCC(=O)NC(C(=O)O)C(=O)O)cccc2n1Cc1ccccc1 [Compound 3F, [2-[[3-(Aminooxoacetyl)-2-ethyl-1-(phenylmethyl)-1H-indol-4-yl]oxy]acetamido]malonic Acid] | – | – | 44.7
CCc1c(C(=O)C(N)=O)c2c(OCC(=O)N[C@H](C(=O)O)C(C)C)cccc2n1Cc1ccccc1 [Compound 3G, N-[2-[[3-(Aminooxoacetyl)-2-ethyl-1-(phenylmethyl)-1H-indol-4-yl]oxy]acetyl]-L-valine] | – | – | 36.4
CCc1c(C(=O)C(N)=O)c2c(OCC(=O)N[C@H](C(=O)O)[C@@H](C)CC)cccc2n1Cc1ccccc1 [Compound 3H, N-[2-[[3-(Aminooxoacetyl)-2-ethyl-1-(phenylmethyl)-1H-indol-4-yl]oxy]acetyl]-L-isoleucine] | – | – | 25.1
